Source: ChEMBL document CHEMBL4385639, “1,2,3-Triazole-containing hybrids as leads in medicinal chemistry: A recent overview” (Bioorg Med Chem, 2019)
In brackets after ≈: the same amount, converted by molar mass.

Legend:
MCF7 [1] = test: cells; details: Homo sapiens, MCF7, 72 h
Description: Antiproliferative activity against human MCF7 cells incubated for 72 hrs by MTT assay

[2] = target: Polyunsaturated fatty acid 5-lipoxygenase (Homo sapiens, UniProt P09917); test: Inhibition of 5-lipoxygenase (unknown origin) incubated for 10 mins
[3] = target: Tyrosinase (Homo sapiens) (UniProt P14679); test: Inhibition of tyrosinase (unknown origin) using L-DOPA as substrate preincubated with substrate for 2 mins followed by enzyme addition and measured after 10 min by spectrophotometric method relative to control
Chain of Tyrosinase (Homo sapiens) (P14679 whole entry): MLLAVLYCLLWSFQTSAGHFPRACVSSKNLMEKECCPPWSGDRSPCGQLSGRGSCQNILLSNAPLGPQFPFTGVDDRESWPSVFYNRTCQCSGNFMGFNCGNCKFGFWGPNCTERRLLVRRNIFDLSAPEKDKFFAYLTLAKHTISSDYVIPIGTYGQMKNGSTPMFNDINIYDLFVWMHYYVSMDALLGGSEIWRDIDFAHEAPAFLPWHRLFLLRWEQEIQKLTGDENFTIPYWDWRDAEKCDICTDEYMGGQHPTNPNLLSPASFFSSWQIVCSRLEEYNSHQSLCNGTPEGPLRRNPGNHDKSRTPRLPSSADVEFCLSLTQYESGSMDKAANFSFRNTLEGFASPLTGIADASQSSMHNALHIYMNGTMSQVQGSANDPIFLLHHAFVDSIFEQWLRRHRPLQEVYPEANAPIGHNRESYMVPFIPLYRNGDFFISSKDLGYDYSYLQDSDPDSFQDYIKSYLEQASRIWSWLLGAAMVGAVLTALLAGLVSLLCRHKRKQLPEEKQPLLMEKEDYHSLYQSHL

Cholinesterase [4] = target: Cholinesterase (Homo sapiens, UniProt P06276); test: Inhibition of BChE (unknown origin) using butyrylthiocholine iodide as substrate preincubated for 15 mins followed by substrate addition and measured after 15 mins
Chain of Cholinesterase (Homo sapiens, UniProt P06276) (P06276 whole entry): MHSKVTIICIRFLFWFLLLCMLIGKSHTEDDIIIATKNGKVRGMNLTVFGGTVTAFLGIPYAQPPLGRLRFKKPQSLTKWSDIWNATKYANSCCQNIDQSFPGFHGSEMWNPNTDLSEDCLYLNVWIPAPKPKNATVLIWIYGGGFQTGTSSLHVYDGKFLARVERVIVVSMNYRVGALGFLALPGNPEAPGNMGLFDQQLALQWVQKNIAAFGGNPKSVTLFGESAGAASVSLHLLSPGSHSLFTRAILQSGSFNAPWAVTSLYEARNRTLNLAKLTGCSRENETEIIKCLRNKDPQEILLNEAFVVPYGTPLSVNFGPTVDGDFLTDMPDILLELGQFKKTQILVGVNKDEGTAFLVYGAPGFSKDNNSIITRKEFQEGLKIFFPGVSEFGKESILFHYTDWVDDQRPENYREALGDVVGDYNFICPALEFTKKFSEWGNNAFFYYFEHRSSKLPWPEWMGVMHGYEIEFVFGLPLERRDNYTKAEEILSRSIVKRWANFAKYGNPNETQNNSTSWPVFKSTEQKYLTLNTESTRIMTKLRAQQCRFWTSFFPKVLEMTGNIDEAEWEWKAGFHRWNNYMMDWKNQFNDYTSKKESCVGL

A549 [5] = test: Cytotoxicity against human A549 cells incubated for 24 hrs by MTT assay; assay type: functional, cell-based; details: A549, 24 h
A549 [6] = test: Induction of cell cycle arrest in human A549 cells assessed as accumulation at subG1 phase by flow cytometry relative to control; assay type: functional
HeLa [7] = test: Cytotoxicity against human HeLa cells incubated for 24 hrs by MTT assay; assay type: functional, cell-based
HeLa [8] = test: Induction of cell cycle arrest in human HeLa cells assessed as accumulation at subG1 phase by flow cytometry relative to control; assay type: functional
SNB-19 [9] = test: Potency index, ratio of cisplatin IC50 to compound IC50 for cytotoxicity against human SNB19 cells; assay type: functional
SNB-19 [10] = test: Cytotoxicity against human SNB19 cells after 72 hrs by WST-1 assay; assay type: functional, cell-based; details: SNB-19, 72 h
MCF7 [11] = test: Cytotoxicity against human MCF7 cells incubated up to 48 hrs by MTT assay; assay type: functional, cell-based; details: MCF7, 48 h
Alpha glucosidase = Alpha glucosidase (Homo sapiens, UniProt O43451+P10253+P14410+Q2M2H8); test: Inhibition of alpha-glucosidase (unknown origin) using p-nitrophenyl-alpha-D-glucopyranoside as substrate pre-incubated for 15 mins followed by substrate addition and measured for 20 mins by spectrophotometric analysis; assay type: protein assay
Staphylococcus aureus = test: Antimicrobial activity against Staphylococcus aureus NCIM 5022 incubated for 36 hrs by agar well diffusion method; assay type: functional
Escherichia coli [12] = test: Antimicrobial activity against Escherichia coli NCIM 5051 incubated for 36 hrs by agar well diffusion method; assay type: functional
Escherichia coli [13] = test: Antimicrobial activity against Escherichia coli […]; assay type: functional
HT-29 [14] = test: Potency index, ratio of cisplatin IC50 to compound IC50 for cytotoxicity against human HT-29 cells; assay type: functional
HT-29 [15] = test: Cytotoxicity against human HT-29 cells after 72 hrs by SRB assay; assay type: functional, cell-based; details: HT-29, 72 h
[16] = Inhibition of Saccharomyces cerevisiae alpha-glucosidase using p-nitrophenyl-alpha-D-glucopyranoside as substrate preincubated for 10 mins followed by substrate addition and measured after 20 mins by spectrophotometric analysis
Urease = Urease (Canavalia ensiformis, UniProt P07374); test: Inhibition of jack bean urease assessed as reduction in ammonia production by Berthelot colorimetric method
Leishmania major = test: Antileishmanial activity against Leishmania major 5-ASKH promastigotes incubated for 72 hrs by hemocytometer based cell counting method; assay type: functional, organism-based
[17] = Inhibition of quorum sensing system in Pseudomonas aeruginosa MH602 PlasB::gfp-ASV at 250 uM measured every 30 minutes over 20 hrs by fluorescence analysis relative to control
[18] = test system: Mycobacterium tuberculosis; test: Antitubercular activity against Mycobacterium tuberculosis H37Rv after 7 days by MABA; assay type: functional; details: 168 h
[19] = test system: Staphylococcus epidermidis; test: Antibacterial activity against Staphylococcus epidermidis MTCC 6880 incubated for 24 hrs by serial dilution method; assay type: functional; details: MTCC 6880, 24 h
Escherichia coli [20] = test: Antibacterial activity against Escherichia coli MTCC 1652 after 24 hrs by serial dilution method; assay type: functional; details: MTCC 1652, 24 h
Pseudomonas aeruginosa = test: Antibacterial activity against Pseudomonas aeruginosa MTCC 424 after 24 hrs by serial dilution method; assay type: functional; details: MTCC 424, 24 h
Candida albicans = test: Antifungal activity against Candida albicans MTCC 183 after 24 hrs by serial dilution method; assay type: functional; details: MTCC 183, 24 h
Bacillus subtilis = test: Antibacterial activity against Bacillus subtilis MTCC 441 after 24 hrs by serial dilution method; assay type: functional; details: MTCC 441, 24 h
DU-145 = test: Cytotoxicity against human DU145 cells incubated for 48 hrs by MTT assay; assay type: functional, cell-based; details: DU-145, 48 h
A549 [21] = test: Cytotoxicity against human A549 cells after 48 hrs by MTT assay; assay type: functional, cell-based; details: A549, 48 h
[22] = target: Serine/threonine-protein kinase PLK1 (Homo sapiens, UniProt P53350); test: Inhibition of PLK1 PBD (unknown origin) using GPMQSpTPLNG-OH as fluorescent probe incubated for 30 mins by fluorescence polarization assay
U-937 [23] = test: Antiinflammatory activity in human U937 cells assessed as inhibition of LPS-induced TNF-alpha production incubated for 24 hrs by ELISA; assay type: functional, cell-based; details: U-937, 24 h
U-937 [24] = test: Antiinflammatory activity in human U937 cells assessed as inhibition of LPS-induced TNF-alpha production at 10 uM incubated for 24 hrs by ELISA relative to control; assay type: functional; details: U-937, 24 h
[25] = target: Dihydroorotate dehydrogenase (quinone), mitochondrial (Homo sapiens, UniProt Q02127); test: Inhibition of human recombinant N-terminal His-tagged DHODH (31 to 395 residues) expressed in Escherichia coli using dihydroorotate substrate preincubated for 5 mins followed by substrate addition by DCIP assay
Chain of Dihydroorotate dehydrogenase (quinone), mitochondrial (Q02127 whole entry, the tested form may be a part): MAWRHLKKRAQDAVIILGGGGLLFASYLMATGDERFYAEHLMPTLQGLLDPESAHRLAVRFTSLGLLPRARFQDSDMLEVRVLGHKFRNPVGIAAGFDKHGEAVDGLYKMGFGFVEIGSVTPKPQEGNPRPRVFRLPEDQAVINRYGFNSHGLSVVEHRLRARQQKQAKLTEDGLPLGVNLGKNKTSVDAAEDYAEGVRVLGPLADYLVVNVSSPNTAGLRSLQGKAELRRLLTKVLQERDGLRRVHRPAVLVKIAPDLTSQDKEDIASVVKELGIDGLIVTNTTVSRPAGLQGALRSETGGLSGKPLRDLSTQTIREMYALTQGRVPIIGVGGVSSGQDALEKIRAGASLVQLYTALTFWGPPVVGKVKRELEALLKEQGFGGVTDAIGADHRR

[26] = target: Hepatocyte growth factor receptor (Homo sapiens, UniProt P08581); test: Inhibition of cMET (unknown origin) using FAM-labeled peptide as substrate pre-incubated for 10 mins followed by substrate addition by mobility shift assay
Chain of Hepatocyte growth factor receptor (P08581 whole entry): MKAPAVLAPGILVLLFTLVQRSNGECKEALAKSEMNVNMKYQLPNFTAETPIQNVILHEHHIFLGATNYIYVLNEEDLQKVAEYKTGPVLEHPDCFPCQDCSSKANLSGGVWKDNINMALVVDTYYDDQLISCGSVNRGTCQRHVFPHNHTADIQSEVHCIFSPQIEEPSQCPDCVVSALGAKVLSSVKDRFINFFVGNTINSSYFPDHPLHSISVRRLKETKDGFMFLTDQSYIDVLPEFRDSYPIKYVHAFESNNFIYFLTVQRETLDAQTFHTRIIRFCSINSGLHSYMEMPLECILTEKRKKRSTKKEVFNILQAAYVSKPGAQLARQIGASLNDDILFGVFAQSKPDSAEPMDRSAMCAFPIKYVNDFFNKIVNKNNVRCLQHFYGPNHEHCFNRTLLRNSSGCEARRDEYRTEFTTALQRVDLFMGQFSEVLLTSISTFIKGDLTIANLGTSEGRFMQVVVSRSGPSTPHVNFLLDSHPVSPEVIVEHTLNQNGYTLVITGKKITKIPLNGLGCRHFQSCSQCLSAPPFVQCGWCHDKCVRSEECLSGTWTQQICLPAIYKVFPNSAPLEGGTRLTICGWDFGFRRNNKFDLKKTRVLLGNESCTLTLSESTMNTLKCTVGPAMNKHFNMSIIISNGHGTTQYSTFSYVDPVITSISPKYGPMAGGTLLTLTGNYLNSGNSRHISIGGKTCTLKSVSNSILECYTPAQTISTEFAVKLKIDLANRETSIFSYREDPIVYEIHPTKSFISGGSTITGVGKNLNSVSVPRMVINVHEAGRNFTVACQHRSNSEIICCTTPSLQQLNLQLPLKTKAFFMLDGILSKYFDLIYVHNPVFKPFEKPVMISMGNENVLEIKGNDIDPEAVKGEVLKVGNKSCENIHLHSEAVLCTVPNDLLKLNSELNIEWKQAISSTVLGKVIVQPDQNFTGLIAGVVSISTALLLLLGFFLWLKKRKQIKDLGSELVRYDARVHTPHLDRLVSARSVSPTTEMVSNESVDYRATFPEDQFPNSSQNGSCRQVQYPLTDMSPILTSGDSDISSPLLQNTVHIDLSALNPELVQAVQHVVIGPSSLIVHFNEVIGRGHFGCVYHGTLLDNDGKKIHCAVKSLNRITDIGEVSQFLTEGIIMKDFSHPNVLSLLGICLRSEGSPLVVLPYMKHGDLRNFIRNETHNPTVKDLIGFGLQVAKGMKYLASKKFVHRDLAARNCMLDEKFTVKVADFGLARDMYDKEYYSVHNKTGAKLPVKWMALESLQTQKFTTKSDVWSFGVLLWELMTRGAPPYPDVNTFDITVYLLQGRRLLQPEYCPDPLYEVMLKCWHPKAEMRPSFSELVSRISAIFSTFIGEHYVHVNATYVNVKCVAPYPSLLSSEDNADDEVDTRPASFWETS

HepG2 [27] = test: Cytotoxicity against human HepG2 cells incubated for 72 hrs by MTT assay; assay type: functional, cell-based; details: HepG2, 72 h
A549 [28] = test: Cytotoxicity against human A549 cells incubated for 72 hrs by MTT assay; assay type: functional, cell-based; details: A549, 72 h
HepG2 [29] = test: Potency index, ratio of foretinib IC50 to compound IC50 for antiproliferative activity against human HepG2 cells; assay type: functional
MCF7 [30] = test: Potency index, ratio of foretinib IC50 to compound IC50 for antiproliferative activity against human MCF7 cells; assay type: functional
A549 [31] = test: Potency index, ratio of foretinib IC50 to compound IC50 for antiproliferative activity against human A549 cells; assay type: functional
Cholinesterase [32] = target: Cholinesterase (Equus caballus, UniProt P81908); test: Inhibition of equine serum BuChE using butyrylthiocholine iodide as substrate preincubated for 3 mins followed by substrate addition by Ellman's method
Chain of Cholinesterase (Equus caballus, UniProt P81908) (P81908 whole entry): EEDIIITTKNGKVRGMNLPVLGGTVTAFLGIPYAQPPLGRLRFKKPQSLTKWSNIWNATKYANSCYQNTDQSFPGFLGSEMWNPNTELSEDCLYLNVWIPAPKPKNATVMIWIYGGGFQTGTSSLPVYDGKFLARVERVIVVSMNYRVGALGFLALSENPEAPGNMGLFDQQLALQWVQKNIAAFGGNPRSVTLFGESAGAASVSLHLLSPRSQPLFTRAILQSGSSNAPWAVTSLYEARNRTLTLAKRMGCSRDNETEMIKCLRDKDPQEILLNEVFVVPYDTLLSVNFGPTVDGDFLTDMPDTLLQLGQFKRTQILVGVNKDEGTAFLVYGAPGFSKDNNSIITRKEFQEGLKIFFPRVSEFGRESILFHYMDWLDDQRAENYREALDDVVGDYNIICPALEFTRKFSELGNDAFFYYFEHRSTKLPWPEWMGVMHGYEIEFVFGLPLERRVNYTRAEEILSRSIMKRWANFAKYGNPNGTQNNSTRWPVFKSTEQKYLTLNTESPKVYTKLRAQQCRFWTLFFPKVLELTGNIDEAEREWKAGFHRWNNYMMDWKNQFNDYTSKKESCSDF

Acetylcholinesterase = Acetylcholinesterase (Electrophorus electricus, UniProt O42275); test: Inhibition of electric eel AChE using acetylthiocholine iodide as substrate preincubated for 3 mins followed by substrate addition by Ellman's method
Chain of Acetylcholinesterase (O42275 whole entry): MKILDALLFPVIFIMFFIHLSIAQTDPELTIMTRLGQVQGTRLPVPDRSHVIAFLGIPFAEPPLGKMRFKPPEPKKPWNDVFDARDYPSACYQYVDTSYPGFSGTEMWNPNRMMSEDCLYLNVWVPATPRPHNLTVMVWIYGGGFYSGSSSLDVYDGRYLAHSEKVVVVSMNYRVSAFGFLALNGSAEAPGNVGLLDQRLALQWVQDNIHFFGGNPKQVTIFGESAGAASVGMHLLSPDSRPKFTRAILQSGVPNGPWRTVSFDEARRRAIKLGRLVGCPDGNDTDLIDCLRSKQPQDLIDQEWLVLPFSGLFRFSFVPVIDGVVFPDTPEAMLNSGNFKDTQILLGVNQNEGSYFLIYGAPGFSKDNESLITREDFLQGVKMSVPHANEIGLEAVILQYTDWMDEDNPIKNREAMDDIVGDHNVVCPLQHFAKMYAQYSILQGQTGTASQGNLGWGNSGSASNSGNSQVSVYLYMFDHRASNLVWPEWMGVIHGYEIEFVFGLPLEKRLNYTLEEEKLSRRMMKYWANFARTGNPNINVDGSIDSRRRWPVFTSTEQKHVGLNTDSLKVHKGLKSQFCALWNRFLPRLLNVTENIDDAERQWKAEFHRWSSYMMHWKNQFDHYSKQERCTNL

[33] = Antioxidant activity assessed as inhibition of DPPH radical generation; assay type: functional
[34] = target: Prostaglandin G/H synthase 2 (Homo sapiens, UniProt P35354); test: Inhibition of human COX2 using arachidonic acid as substrate pretreated for 5 mins followed by substrate addition and measured after 20 mins by colorimetric assay
[35] = Inhibition of soyabean 5-lipoxygenase using arachidonic acid as substrate incubated for 5 mins by spectrophotometric method; set-up: species or system Glycine max
Rattus norvegicus = test: Anti-inflammatory activity against carrageenan-induced paw oedema in Wistar rat assessed as reduction in paw edema at 20 mg/kg administered 30 mins prior to carrageenan challenge measured at 3 hrs post carrageenan challenge by plethysmometric method relative to control; assay type: functional; set-up: scale not given: the % may be the effect or the level left

Chain of Polyunsaturated fatty acid 5-lipoxygenase (P09917 whole entry): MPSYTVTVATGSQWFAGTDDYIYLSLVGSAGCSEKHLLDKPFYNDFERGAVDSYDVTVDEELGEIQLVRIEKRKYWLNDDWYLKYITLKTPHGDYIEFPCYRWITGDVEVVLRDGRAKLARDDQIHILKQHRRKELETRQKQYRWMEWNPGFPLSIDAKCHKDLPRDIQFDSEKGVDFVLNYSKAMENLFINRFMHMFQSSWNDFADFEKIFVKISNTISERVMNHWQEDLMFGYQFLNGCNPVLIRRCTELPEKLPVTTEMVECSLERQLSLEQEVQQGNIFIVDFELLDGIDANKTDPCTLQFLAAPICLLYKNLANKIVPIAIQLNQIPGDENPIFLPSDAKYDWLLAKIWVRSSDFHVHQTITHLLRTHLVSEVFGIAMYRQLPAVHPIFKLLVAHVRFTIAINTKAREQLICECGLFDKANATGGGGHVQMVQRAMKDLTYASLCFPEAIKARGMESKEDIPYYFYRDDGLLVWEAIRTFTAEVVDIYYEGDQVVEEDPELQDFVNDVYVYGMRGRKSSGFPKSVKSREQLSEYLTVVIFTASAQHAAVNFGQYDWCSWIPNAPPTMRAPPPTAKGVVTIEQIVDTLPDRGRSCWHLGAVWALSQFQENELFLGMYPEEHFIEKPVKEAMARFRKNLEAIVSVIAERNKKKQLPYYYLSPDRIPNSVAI

SMILES: O=C1CCC(N2C(=O)c3cccc(NC(=O)CCCCCCCn4cc(COc5c(O)cc(O)c6c(=O)cc(-c7ccccc7)oc56)nn4)c3C2=O)C(=O)N1 (centres undefined)
- IC50 (MCF7 [1]): 17 µM

SMILES: O=c1oc2ccccc2c2c1cnn2Cc1cn(-c2c(Cl)cc(Cl)cc2Cl)nn1
- IC50 [2]: 21 µM
- inhibition [3]: 72%
- IC50 (Cholinesterase [4]): 18 µM

SMILES: COc1cc(-c2cc(COc3ccccc3-c3nc4ccccc4o3)on2)ccc1OCc1cn(CC(=O)NCc2ccco2)nn1
- IC50 (A549 [5]): 2590 nM
- Activity (A549 [6]): 49.43%
- IC50 (HeLa [7]): 1770 nM
- Activity (HeLa [8]): 42.58%

SMILES: C=C(C)[C@@H]1CC[C@]2(COC(=O)c3cn([C@H]4C[C@H](n5cc(C)c(=O)[nH]c5=O)O[C@@H]4CO)nn3)CC[C@]3(C)[C@H](CC[C@@H]4[C@@]5(C)CCC(=O)C(C)(C)[C@@H]5CC[C@]43C)[C@@H]12
- Ratio IC50 (SNB-19 [9]): 5
- IC50 (SNB-19 [10]): 170 nM

SMILES: O=C1C(=O)N(CCn2cc(COCCOc3ccc(/C(=C(/CCCl)c4ccccc4)c4ccccc4)cc3)nn2)c2c(Br)cc(Br)cc21
- IC50 (MCF7 [11]): 1560 nM

SMILES: COc1ccc(-c2ccc(O[C@H](C)Cn3cc(-c4ccc(C(F)(F)F)cc4)nn3)c(OC)c2)cc1
- IC50 (Alpha glucosidase): 14.2 µM

SMILES: Clc1ccc(Cn2nncc2CN2CCN(C(c3ccccc3)c3ccccc3)CC2)c(Cl)c1
- diameter of the inhibition zone (DIZ) (Staphylococcus aureus): 16.45 mm
- diameter of the inhibition zone (DIZ) (Escherichia coli [12]): 16.15 mm

SMILES: Cc1cc(O)c(C(=O)/C=C/c2ccc(OCc3cn(Cc4ccc(Br)cc4)nn3)cc2)c(=O)o1
- MIC (Escherichia coli [13]): 3 µM (≈ 1.57 µg/mL)

SMILES: C=C[C@H]1CN2CC[C@H]1C[C@H]2[C@H](O)c1cc(-c2cn(-c3ccc(O)cc3)nn2)nc2ccc(OC)cc12
- Ratio IC50 (HT-29 [14]): 8
- IC50 (HT-29 [15]): 1210 nM

SMILES: O=c1c2ccccc2nc(SCc2cn(Cc3ccc(Br)cc3)nn2)n1CCc1ccccc1
- Ki [16]: 117 µM

SMILES: COc1ccc(NC(=O)NCc2cn(Cc3ccc(Cl)cc3Cl)nn2)cc1
- IC50 (Urease): 22.8 µM

SMILES: COc1c(O)cc(O)c2c(=O)cc(-c3ccccc3)oc12 [WOGONIN]
- IC50 (MCF7 [1]): 30 µM

SMILES: O=c1oc2ccccc2c2nn(Cc3cn(-c4c(Cl)cc(Cl)cc4Cl)nn3)cc12
- IC50 [2]: 24 µM
- inhibition [3]: 58%
- IC50 (Cholinesterase [4]): 29 µM

SMILES: COC(=O)[C@H](CC(C)C)NC(=O)c1cn(-c2ccccc2N)nn1
- IC50 (Leishmania major): 11 µg/mL (≈ 33.2 µM)

SMILES: CCc1ccc(-n2cc(CCC(=O)Nc3c(-c4ccccc4)[nH]c4ccccc34)nn2)cc1
- inhibition [17]: 60.8%

SMILES: Cc1ccc2c(c1)C=CC1(CCc3c(nnn3-c3ccccc3)C1)O2 (centres undefined)
- MIC [18]: 4.74 µM (≈ 1.56 µg/mL)

SMILES: Fc1cccc(Cl)c1Cn1nncc1CN1CCN(C(c2ccccc2)c2ccccc2)CC1
- diameter of the inhibition zone (DIZ) (Staphylococcus aureus): 16.33 mm
- diameter of the inhibition zone (DIZ) (Escherichia coli [12]): 15.63 mm

SMILES: O=C(Cn1cc(CSc2ccc(Br)cc2)nn1)OCc1ccc(Cl)cc1
- MIC [19]: 15.3 µM (≈ 6.93 µg/mL)
- MIC (Escherichia coli [20]): 15.3 µM (≈ 6.93 µg/mL)
- MIC (Pseudomonas aeruginosa): 15.3 µM (≈ 6.93 µg/mL)
- MIC (Candida albicans): 15.3 µM (≈ 6.93 µg/mL)
- MIC (Bacillus subtilis): 15.3 µM (≈ 6.93 µg/mL)

SMILES: O=C(Cn1cc(CSc2ccc(Cl)cc2)nn1)OCc1ccc(Cl)cc1
- MIC [19]: 13.8 µM (≈ 5.63 µg/mL)
- MIC (Escherichia coli [20]): 13.8 µM (≈ 5.63 µg/mL)
- MIC (Pseudomonas aeruginosa): 13.8 µM (≈ 5.63 µg/mL)
- MIC (Candida albicans): 13.8 µM (≈ 5.63 µg/mL)

SMILES: COc1ccc(-n2nnc3c2CCC2(C=Cc4cc(Cl)ccc4O2)C3)cc1 (centres undefined)
- MIC [18]: 4.11 µM (≈ 1.56 µg/mL)

SMILES: COc1cc(Cn2cc(C(=O)c3c(-c4ccccc4)nc4ccccn34)nn2)cc(OC)c1OC
- IC50 (DU-145): 1.04 µM
- IC50 (A549 [21]): 510 nM

SMILES: O=C(CCNC(=O)c1ccc(CO)cc1)N[C@@H](Cc1cnnn1CCCCCCCCc1ccccc1)C(=O)NCc1cnnn1CCP(=O)(O)O
- IC50 [22]: 3.37 µM

SMILES: Cc1cc(O)cc2oc(=O)cc(CNCc3cn(-c4ccc(Br)cc4)nn3)c12
- IC50 (U-937 [23]): 8.01 µM
- inhibition at 10 µM (U-937 [24]): 62%

SMILES: COc1ccc(-n2nnc3c2CCC2(C=Cc4cc(C)ccc4O2)C3)cc1 (centres undefined)
- MIC [18]: 4.34 µM (≈ 1.56 µg/mL)

SMILES: NC(=O)c1cc(F)c(F)cc1-n1cc(COc2ccc(C(F)(F)F)cc2)nn1
- IC50 [25]: 2100 nM

SMILES: O=C(Nc1ccc(Oc2ncnc3ccsc23)c(F)c1)c1nnn(-c2ccc(Cl)cc2)c1C(F)(F)F
- IC50 [26]: 16 nM
- IC50 (HepG2 [27]): 500 nM
- IC50 (A549 [28]): 900 nM
- Ratio IC50 (HepG2 [29]): 3.7 - 5.4
- Ratio IC50 (MCF7 [30]): 3.7 - 5.4
- Ratio IC50 (A549 [31]): 3.7 - 5.4
- IC50 (MCF7 [1]): 1.1 µM

SMILES: O=C(CCCCC1CCSS1)NCc1cn(CCCCOc2ccc(-c3cc4c(ccc5ccccc54)oc3=O)cc2)nn1 (centres undefined)
- IC50 (Cholinesterase [32]): 68.6 µM
- IC50 (Acetylcholinesterase): 7.3 µM

SMILES: Cn1c(=O)c2c3cc(F)ccc3c(=O)n(Cc3cn(Cc4ccccc4)nn3)c2n(C)c1=O
- IC50 [33]: 6.02 µM

SMILES: CCc1ccc(-n2cc(CNC(=O)C(=O)c3cc4ccccc4[nH]3)nn2)cc1
- IC50 [34]: 120 nM
- IC50 (DU-145): 8.17 µM
- IC50 [35]: 7.73 µM
- Activity (Rattus norvegicus): 76.9%
